Results reported in patent publication US20220213052A1, “INHIBITORS OF RNA-BINDING PROTEINS, COMPOSITIONS THEREOF, AND THERAPEUTIC USES THEROF” (The University of North Carolina at Chapel Hill, priority 2019, published 2022).

Assays:
[1] = target: T1, full-length human HuR protein (Homo sapiens, UniProt Q15717); assay: FP assay of HuR-Msi1 ARE binding inhibition; conditions: HuR-Msi1 ARE interaction; read-out: HuR Ki via FP assay
T1 construct: full-length human HuR protein was produced by the KU COBRE-PSF Protein Purification Group; made in house
T1 sequence (Q15717 whole entry): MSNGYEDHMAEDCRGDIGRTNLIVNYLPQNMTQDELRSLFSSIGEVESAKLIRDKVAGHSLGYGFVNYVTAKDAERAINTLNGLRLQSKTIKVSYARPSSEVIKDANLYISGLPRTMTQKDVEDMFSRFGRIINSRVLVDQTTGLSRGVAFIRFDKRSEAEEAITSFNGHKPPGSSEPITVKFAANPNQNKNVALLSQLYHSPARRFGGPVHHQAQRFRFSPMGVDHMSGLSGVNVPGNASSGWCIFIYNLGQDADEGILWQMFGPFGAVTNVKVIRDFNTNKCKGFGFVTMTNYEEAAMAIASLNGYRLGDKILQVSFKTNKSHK
Outline: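 Fluorescence polarization competition using full-length human HuR protein and a 3′-fluorescein-labelled 16-nt Msi1 ARE RNA. A fluorescein-labelled degenerate 16-nt RNA served as negative control.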

[2] = system: MDA-MB-231 HuR knockout clones (HuR KO1 and HuR KO2); assay: Cytotoxicity against HuR knockout clones of MDA-MB-231; type: cell-based; conditions: HuR KO1 and HuR KO2 vs MDA-MB-231 and sgControl
Description: The cytotoxicity of various compounds of the present technology in several cancer cell lines (pancreatic cancer cell line MIAPaCa-2, triple-negative breast cancer cell line MDA-MB-231, and colon cancer cell lines HCT116, HCT116 β/W, and RKO) was assessed by a cytotoxicity assay. Cells were seeded in 96-well culture plates (3,000-5,000 cells/well) and treated with titrated compounds in triplicate. After 96 h incubation, cell growth medium was removed and proliferation reagent WST-8 (Sigma) was added to each well and incubated at 37° C. for 1-3 h. Absorbance was then measured with a plate reader at 450 nm with correction at 650 nm. The results were expressed as the percentage of absorbance of treated wells versus that of vehicle control. IC50, the drug concentration causing 50% growth inhibition, was calculated via sigmoid curve fitting using GraphPad Prism 5.0. The results for those compounds tested against MIAPaCa-2 and MDA-MB-231 are provided in Table 1; the results for those compounds tested against colon cancer cell lines HCT116, HCT116 β/W, and RKO are provided in Table 3.
The cytotoxicity of KH-39 and KH-58 against HuR knockout clones was probed by the same assay as described above. […]

[3] = target: T2, HuR protein bound to ARE^Msi1-Biotin (Homo sapiens, UniProt Q15717); assay: RNA immunoprecipitation (RNA-IP) pull-down assay; type: cell-based; conditions: 20 μM
T2 construct: endogenous in cells; cytoplasmic lysate
T2 sequence (Q15717 2-326 limits assumed): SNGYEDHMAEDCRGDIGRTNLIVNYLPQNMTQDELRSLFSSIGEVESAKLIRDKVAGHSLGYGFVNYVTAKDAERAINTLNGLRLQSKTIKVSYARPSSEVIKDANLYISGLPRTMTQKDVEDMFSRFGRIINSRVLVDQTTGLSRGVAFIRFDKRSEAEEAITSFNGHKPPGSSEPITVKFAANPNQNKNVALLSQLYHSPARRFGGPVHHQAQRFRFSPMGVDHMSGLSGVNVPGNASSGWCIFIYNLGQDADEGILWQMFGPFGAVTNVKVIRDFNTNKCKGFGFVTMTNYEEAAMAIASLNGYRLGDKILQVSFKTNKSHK
Description: Pull-down Assay #1—RNA Immunoprecipitation (RNA-IP): Cells with HuR overexpression will be treated with compounds, then the cell cytoplasmic lysates were collected using NE-PER Nuclear and Cytoplasmic Extraction Kit (Thermo Scientific), and subsequently to the cell cytoplasmic lysates were added the biotinylated target ARE oligo from Msi1 mRNA (ARE^Msi1-Biotin). Following this, streptavidin beads were added to pull down HuR protein bound to ARE^Msi1-Biotin. Unlabeled target AREs used as positive control. Compounds of the present technology block the HuR pull-down by the biotinylated ARE oligo, illustrating inhibition of the HuR-mRNA interaction. For example, using 20 μM KH-39, 20 μM KH-56, and 10 μM KH-58 in such a RNA-IP assay provided the data illustrated in FIG. 5. The numbers immediately below the pictured bands in FIG. 5 are calculated by diving the band intensity of the particular sample by the band intensity of the DMSO treated sample (entry 3). […]

[4] = target: T3, HuR-bound target mRNAs in MDA-MB-231 cells (Homo sapiens, UniProt Q15717); assay: Ribonucleoprotein immunoprecipitation (RNP-IP) pull-down assay; type: cell-based; conditions: 10 μM
T3 construct: endogenous in cells; host or cells: MDA-MB-231
T3 sequence (Q15717 2-326 limits assumed): as above
Description: Pull-down Assay #2—Ribonuleoprotein Immunoprecipitation (RNP-IP): Cells with HuR overexpression were treated with compounds, then the cell cytoplasmic lysates collected using NE-PER Nuclear and Cytoplasmic Extraction Kit (Thermo Scientific), then the cell cytoplasmic lysates incubated with anti-HuR antibody, and subsequently Protein G agarose beads (from Roche) added to pull down HuR protein. The HuR-bound target mRNAs pulled down were measured by qRT-PCR using a reported method (Ji, Q., et al., MicroRNA miR-34 inhibits human pancreatic cancer tumor-initiating cells. PLoS One, 2009. 4(8): p. e6816, incorporated herein by reference). Mouse IgG will be used as negative control. Compounds of the present technology block the target mRNAs pulled down by HuR antibody.

MDA-MB-231 cells = assay: Matrigel invasion assay; type: cell-based; conditions: 10 μM; 24 h pretreatment, 20 h incubation
Description: To examine the anti-metastatic effect of compounds of the present technology, an invasion assay using Matrigel Invasion Chambers coated with Matrigel Matrix was performed. To perform the assays, MDA-MB-231 cells pretreated with compounds for 24 hours are added to the chambers and then incubated for 20 hours. Cells that remained on the upper surface of the chamber are completely removed with a cotton swab. Cells that emigrated or invaded through the membrane/Matrigel to the bottom of the chamber were fixed and stained with 0.2% crystal violet and photographed.

`CC(C)(C)c1ccc(C(=O)Nc2ccc3[nH]c(C(=O)NO)cc3c2)cc1` [KH-39, 5-(4-(tert-butyl)benzamido)-N-hydroxy-1H-indole-2-carboxamide] was tested, and the Ki [1] was 650 nM, the “IC50 of HuR KO clones versus parental cells and vector control cells” value [2] was “two to three folds higher IC50 values” and the “ARE^Msi1-Biotin mediated pull-down of HuR protein” value [3] was “block ARE^Msi1-Biotin mediated pull-down of HuR protein”. For the same molecule, the “HuR pull-down of target mRNAs” value [4] was “at least partially block HuR pull-down of target mRNAs” and the MDA-MB-231 cell invasion (MDA-MB-231 cells) was “clearly inhibited MDA-MB-231 cell invasion”.
